Test results published in paper PMC6707612, “Cyclic-di-GMP binds to histidine kinase RavS to control RavS-RavR phosphotransfer and regulates the bacterial lifestyle transition between virulence and swimming” (PLoS Pathogens, 2019).

Experiments:
Test in all cases: microscale thermophoresis (MST) binding
Design in all cases: species or system Xanthomonas campestris pv. campestris
DHp domain of RavS = conditions: DHp region
Method: (§1) Fig 6 Arg^656 in the CA domain of RavS is a key residue for c-di-GMP binding. (a, b) c-di-GMP binds to the DHp-CA domain of RavS. PAS-A, PAS-B and DHp-CA in (a), and DHp and CA domains of RavS in (b), were purified and the interaction with c-di-GMP was measured by MST. Each assay was repeated three times. Standard deviations are shown. (c) Molecular docking model of the interaction between c-di-GMP and DHp-CA of RavS. c-di-GMP is shown as a ball-and-stick model and DHp-CA is shown in ribbon representation. (d) Schematic view of the predicted docking site between c-di-GMP and DHp-CA. Potential hydrogen bonds are indicated as blue dashed lines. Autodock software was used to predict the interaction. (e) Effect of amino acid substitutions on RavS–c-di-GMP binding. Ten recombinant proteins of the DHp-CA region, each containing a substitution of a putative essential residue involved in c-di-GMP binding, were used in the MST assay to quantify the Kd value of RavS–c-di-GMP binding. fl-c-di-GMP was used in the MST assay. Each experiment was repeated three times. […] The reactions were terminated with 5× SDS loading buffer and the products were separated by 12% SDS-PAGE, exposed to a phosphor screen and analysed by Typhoon FLA7000. […]
(§2) The interaction between c-di-GMP nucleotides and various proteins was measured by using MST with a fluorescein-labelled c-di-GMP (2′-Fluo-AHC-c-di-GMP, abbreviated as fl-c-di-GMP; 2′-Fluo-AHC-c-di-AMP, fl-c-di-AMP; 2′-Fluo-AHC-cGMP, fl-cGMP; Biolog, Germany). These chemicals contain carboxyfluorescein that has excitation and emission wavelengths of 497 nm and 520 nm, respectively, which can be detected directly by a MST instrument. […] Fluorescence intensity due to thermophoresis was recorded using the blue channel optics of the instrument (λex = 470 ± 15 nm, λem = 520 ± 10 nm) during a 30 s period of infrared laser heating at 80% of the maximum laser power, followed by a 5 s cooling period. […]

PAS-A of RavS = conditions: PAS-A region
Method: as §1, §2

PAS-B of RavS = conditions: PAS-B region
Method: as §1, §2

Measured: binding (MST)

Nc1nc2c(ncn2[C@@H]2O[C@@H]3COP(=O)(O)O[C@H]4[C@@H](OC(=O)NCCCCCCNC(=O)c5ccc6c(c5)C(=O)OC65c6ccc(O)cc6Oc6cc(O)ccc65)[C@H](n5cnc6c(=O)[nH]c(N)nc65)O[C@@H]4COP(=O)(O)O[C@H]3[C@H]2O)c(=O)[nH]1 [fl-c-di-GMP, 2′-Fluo-AHC-c-di-GMP]
no binding: all assays above
